Test: solubility (saturation concentration) of roflumilast in solvent-water blends, HPLC after 0.2 micron filtration
Format: physicochemical
Details: controlled room temperature
Protocol: The solubility of roflumilast in various solvents was determined. Compositions of roflumilast and the solvents identified in Table 1 were prepared. To prepare the compositions, 10 g of a solvent-water blend was added into a 20 mL clear glass vial. 0.05 g of the active pharmaceutical ingredient (API), roflumilast, was added into the vial. The vial was mixed on a jar roller at controlled room temperature at an appropriate speed. A visual evaluation was performed after shaking. If all of the API was dissolved, an additional 0.05 g of API was added into the vial and further mixing was performed. If any API remained undissolved, the total amount of API added to the vial was recorded. The visual inspection was repeated as necessary until no more API could be dissolved. For each solvent, the solubility was determined by syringe filtering (0.2 micron filter) the solvent blend to remove undissolved roflumilast and determining the amount of dissolved roflumilast using HPLC analysis. Composition of the solvent blends were an equal molar solvent-water mixtures, as well as a 1:2 (weight:weight) solvent-water blends. Transcutol P, which is described for use with roflumilast in U.S. Patent Publication No. 2019/009133, was used as a reference point in Example 1.

μg roflumilast per mL blend (saturation concentration) (1:2 solvent to water (weight:weight), reference solvent Transcutol P (111-90-0), 5.00 g solvent, 10.01 g water): 45.01 µg/mL
μg roflumilast per mL blend (saturation concentration) (1:2 solvent to water (weight:weight), solvent 1,2-hexanediol (6920-22-5), 5.02 g solvent, 10.02 g water): 293.26 µg/mL
μg roflumilast per mL blend (saturation concentration) (1:2 solvent to water (weight:weight), solvent 1,2-pentanediol (3174-67-2), 5.01 g solvent, 10.04 g water): 139.71 µg/mL
μg roflumilast per mL blend (saturation concentration) (1:2 solvent to water (weight:weight), solvent 1,3-butylene glycol (107-88-0), 5.01 g solvent, 10.00 g water): 11.27 µg/mL
μg roflumilast per mL blend (saturation concentration) (1:2 solvent to water (weight:weight), solvent 1,3-propanediol (504-63-2), 5.01 g solvent, 10.02 g water): 6.23 µg/mL
μg roflumilast per mL blend (saturation concentration) (1:2 solvent to water (weight:weight), solvent 1,6-hexanediol (629-11-8), 5.01 g solvent, 10.02 g water): 112.31 µg/mL
μg roflumilast per mL blend (saturation concentration) (1:2 solvent to water (weight:weight), solvent 5-methyloxolan-2-one (108-29-2), 5.01 g solvent, 10.01 g water): 392.14 µg/mL
μg roflumilast per mL blend (saturation concentration) (1:2 solvent to water (weight:weight), solvent Pantolactone (599-04-2), 5.03 g solvent, 10.02 g water): 62.04 µg/mL
μg roflumilast per mL blend (saturation concentration) (1:2 solvent to water (weight:weight), solvent dipropylene glycol (25265-71-8), 5.01 g solvent, 10.01 g water): 34.44 µg/mL
μg roflumilast per mL blend (saturation concentration) (1:2 solvent to water (weight:weight), solvent propylene glycol methyl ethyl acetate (107-98-2), 5.01 g solvent, 10.03 g water): 65.80 µg/mL
μg roflumilast per mL blend (saturation concentration) (equal molar solvent-water blend, reference solvent Transcutol P (111-90-0), 2.00 g solvent, 14.81 g water): 2.55 µg/mL
μg roflumilast per mL blend (saturation concentration) (equal molar solvent-water blend, solvent 1,2-hexanediol (6920-22-5), 2.00 g solvent, 13.24 g water): 37.67 µg/mL
μg roflumilast per mL blend (saturation concentration) (equal molar solvent-water blend, solvent 1,2-pentanediol (3174-67-2), 2.21 g solvent, 12.80 g water): 4.16 µg/mL
μg roflumilast per mL blend (saturation concentration) (equal molar solvent-water blend, solvent 1,3-butylene glycol (107-88-0), 2.52 g solvent, 12.51 g water): 1.46 µg/mL
μg roflumilast per mL blend (saturation concentration) (equal molar solvent-water blend, solvent 1,3-propanediol (504-63-2), 3.00 g solvent, 12.60 g water): 2.77 µg/mL
μg roflumilast per mL blend (saturation concentration) (equal molar solvent-water blend, solvent 1,6-hexanediol (629-11-8), 2.00 g solvent, 13.11 g water): 5.81 µg/mL
μg roflumilast per mL blend (saturation concentration) (equal molar solvent-water blend, solvent 5-methyloxolan-2-one (108-29-2), 2.51 g solvent, 14.03 g water): 7.80 µg/mL
μg roflumilast per mL blend (saturation concentration) (equal molar solvent-water blend, solvent Pantolactone (599-04-2), 2.00 g solvent, 14.41 g water): 0.96 µg/mL
μg roflumilast per mL blend (saturation concentration) (equal molar solvent-water blend, solvent dipropylene glycol (25265-71-8), 2.02 g solvent, 14.84 g water): 2.27 µg/mL
μg roflumilast per mL blend (saturation concentration) (equal molar solvent-water blend, solvent propylene glycol methyl ethyl acetate (107-98-2), 2.50 g solvent, 12.52 g water): 6.04 µg/mL
Compound: O=C(Nc1c(Cl)cncc1Cl)c1ccc(OC(F)F)c(OCC2CC2)c1 [roflumilast, N-(3,5-dichloropyrid-4-yl)-3-cyclopropylmethoxy-4-difluoromethoxybenzamide]
μg roflumilast per mL blend (saturation concentration) (1:2 solvent to water (weight:weight), solvent 2-(2-butoxy-ethoxy)ethanol (112-34-5), 5.01 g solvent, 10.01 g water): 802.24 µg/mL
μg roflumilast per mL blend (saturation concentration) (equal molar solvent-water blend, solvent 2-(2-butoxy-ethoxy)ethanol (112-34-5), 1.50 g solvent, 13.50 g water): 2.29 µg/mL

Source: US12144802B2, “Pharmaceutical compositions of roflumilast and solvents capable of dissolving high amounts of the drug” (ARCUTIS BIOTHERAPEUTICS, INC., priority 2022, dated 2024)
